Experiments:
[1] = target: human V1a receptors (Homo sapiens, UniProt P37288); conditions: various species, in particular human V1a receptors; J. Clin. Invest., 1993, 92 224-231; cited from earlier work
[2] = test system: normally hydrated conscious rat; experiment: water diuresis induced in the normally hydrated conscious rat (urinary volume, osmolality, Na+ and K+ excretion over 24 h); format: in vivo, Sprague Dawley male rats; conditions: for effect on urinary excretion (in words) / effect on urinary excretion of Na+ and K+ ions (in words) / effect on urinary osmolality (in words): oral, over 24 hours
Protocol: Serradeil-Le Gal et al., J. Clin. Invest. 1996, 98, 2729-2738.
The various assays are performed on Sprague Dawley male rats (280+/−20 g) obtained from Iffa Credo (France).
Twenty four hours before the start of the study, the rats were randomized and placed in metabolic cages with food and water ad libitum. They received orally 3 ml/kg of a 0.6% aqueous solution of methylcellulose. The urines were collected over a 24 hour period, i.e. day D-1.
The next morning the rats are treated orally (solvent or products alone or in combination) and returned individually to their metabolic cage for a period of 24 hours with food and water ad libitum. The urines are collected over a period of 24 hours after treatment, i.e. day D-0.
Urinary osmolality and the urinary excretion of Na^+ and K^+ ions are also measured during the 24 hour period before and after treatment. The urinary osmolality is measured with a freezing point depression osmometer (Fisk OS 110 model, Elvetec, Marseille, France) and the urinary concentrations of sodium and potassium are measured with a flame photometer (IL 943, Instruments Laboratories, Marseille, France).
The compounds alone (compound A, compound B) or in combination (compound A+compound B) are suspended in a 0.6% aqueous solution of methylcellulose and administered by gavage in a final volume of 3 ml/kg.
Compound B was used in the form of its dihydrogen phosphate monohydrate salt, the doses indicated are expressed in terms of the base.
The results are expressed in the form of the mean+/−SEM (standard error of the mean). The statistical analysis of the results is performed by means of a two factor variance analysis with repeated measurements of the time factor. The comparison of the means is made with the aid of the Dunnett test for a comparison with respect to a time or group of reference. Only the values of p lower than 5% are considered to be significant (p<0.05).
ASSAY No. 1: Comparative effect on urinary excretion, urinary osmolality and excretion of the Na^+ and K^+ ions in the rat after oral administration of compound A alone, compound B alone and of the combination compound A^+ compound B.
a) Study Performed by Oral Administration of a Fixed Dose of Compound A (30 mg/kg) combined with increasing doses of compound B (0.3, 1 or 3 mg/kg).
b) Study Performed by Oral Administration of a Fixed Dose of Compound B (1 mg/kg) combined with increasing doses of compound A (3,10 or 30 mg/kg).

[3] = target: human V2 receptors (Homo sapiens, UniProt P30518); conditions: cited from earlier work
[4] = study a, 30 mg/kg oral, D0 0-24 h after treatment
[5] = study a, 30 mg/kg oral, D-0 0-24 h after treatment
[6] = study a, group of 30 mg/kg oral, D-1 0-24 h, day before treatment (solvent only)
[7] = study a, compound A 30 mg/kg, compound B 0.3, 1 or 3 mg/kg, alone or combined
[8] = study b, 30 mg/kg oral, D0 0-24 h after treatment
[9] = study b, group of 30 mg/kg oral, D-1 0-24 h, day before treatment (solvent only)
[10] = study a, 0.3 mg/kg oral, D0 0-24 h after treatment
[11] = study a, 0.3 mg/kg oral, D-0 0-24 h after treatment
[12] = study a, 1 mg/kg oral, D0 0-24 h after treatment
[13] = study a, 1 mg/kg oral, D-0 0-24 h after treatment
[14] = study a, 3 mg/kg oral, D0 0-24 h after treatment
[15] = study a, 3 mg/kg oral, D-0 0-24 h after treatment
[16] = study a, group of 0.3 mg/kg oral, D-1 0-24 h, day before treatment (solvent only)
[17] = study a, group of 1 mg/kg oral, D-1 0-24 h, day before treatment (solvent only)
[18] = study a, group of 3 mg/kg oral, D-1 0-24 h, day before treatment (solvent only)
[19] = study b, 1 mg/kg oral, D0 0-24 h after treatment
[20] = study b, group of 1 mg/kg oral, D-1 0-24 h, day before treatment (solvent only)
[21] = study b, compound B 1 mg/kg alone or combined with compound A 3, 10 or 30 mg/kg

Sequence of human V2 receptors (P30518 whole entry): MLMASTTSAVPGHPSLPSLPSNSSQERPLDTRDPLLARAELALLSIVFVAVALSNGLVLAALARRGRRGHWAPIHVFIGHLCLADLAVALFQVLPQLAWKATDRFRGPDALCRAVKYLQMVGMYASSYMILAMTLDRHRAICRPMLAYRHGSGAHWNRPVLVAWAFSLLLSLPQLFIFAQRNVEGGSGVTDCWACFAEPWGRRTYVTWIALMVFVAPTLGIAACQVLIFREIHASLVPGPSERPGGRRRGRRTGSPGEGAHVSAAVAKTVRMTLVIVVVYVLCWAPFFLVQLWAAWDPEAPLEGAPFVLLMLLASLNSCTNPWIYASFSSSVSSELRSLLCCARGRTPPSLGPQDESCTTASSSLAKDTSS
Sequence of human V1a receptors (P37288 whole entry): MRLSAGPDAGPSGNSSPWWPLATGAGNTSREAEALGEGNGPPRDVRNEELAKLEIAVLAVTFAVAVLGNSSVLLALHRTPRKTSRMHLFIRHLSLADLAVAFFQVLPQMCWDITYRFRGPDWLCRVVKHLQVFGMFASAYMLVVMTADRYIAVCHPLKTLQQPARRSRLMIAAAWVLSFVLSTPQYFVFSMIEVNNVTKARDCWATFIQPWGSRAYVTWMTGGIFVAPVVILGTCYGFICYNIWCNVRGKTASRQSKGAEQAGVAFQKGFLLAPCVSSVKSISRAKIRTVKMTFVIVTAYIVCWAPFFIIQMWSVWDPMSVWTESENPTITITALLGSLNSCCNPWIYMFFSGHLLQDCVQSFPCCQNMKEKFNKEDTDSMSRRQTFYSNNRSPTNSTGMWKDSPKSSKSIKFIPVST

Q: Which “V1a arginine vasopressin receptor antagonism (in words)” value [1] does the source give for COc1ccc(S(=O)(=O)N2c3ccc(Cl)cc3[C@](O)(c3ccccc3Cl)[C@@H]2C(=O)N2CCC[C@H]2C(N)=O)cc1OC [Compound A, (2S)-1-{(2R,3S)-5-chloro-3-(2-chlorophenyl)-1-(3,4-dimethoxybenzenesulfonyl)-3-hydroxy-2,3-dihydro-1H-indole-2-carbonyl}pyrrolidine-2-carboxamide] here?
A: Its value is “potent and selective”.

Q: And the “urinary excretion of K+” value [2, 4]?
A: Its value is 2190 µmol.

Q: What about the “urinary excretion of Na+” value [2, 4] of the same molecule?
A: The value was 1668 µmol.

Q: And the Urinary osmolality [2, 5]?
A: The Urinary osmolality was 2462 +/− 379^ mOsmol/kg H2O.

Q: And the Urinary volume [2, 5]?
A: Its Urinary volume is 7.3 ± 1.2 mL.

Q: What about the Urinary osmolality [2, 6] of the same molecule?
A: Its Urinary osmolality is 1409 +/− 13 mOsmol/kg H2O.

Q: And the Urinary volume [2, 6]?
A: Its Urinary volume is 10.7 ± 1.1 mL.

Q: What about the “urinary excretion of K+” value [2, 6] of the same molecule?
A: Its value is 2265 µmol.

Q: And the “urinary excretion of Na+” value [2, 6]?
A: Its value is 1903 µmol.

Q: And the “effect on urinary excretion (in words)” value [2, 7]?
A: The value was “does not modify”.

Q: And the “effect on urinary excretion of Na+ and K+ ions (in words)” value (“effect … of Na+ and K+ ions (in words)” for short) [2, 7]?
A: Its value is “does not alter”.

Q: And the “effect on urinary osmolality (in words)” value [2, 7]?
A: The value was “does not modify”.

Q: And the Urinary osmolality [2, 8]?
A: Its Urinary osmolality is 2462 +/− 379^ mOsmol/kg H2O.

Q: And the Urinary volume [2, 8]?
A: Its Urinary volume is 7.3 +/− 1.2^ ml.

Q: And the “urinary excretion of K+” value [2, 8]?
A: Its value is 2190 µmol.

Q: And the “urinary excretion of Na+” value [2, 8]?
A: Its value is 1668 µmol.

Q: And the Urinary osmolality [2, 9]?
A: Its Urinary osmolality is 1409 +/− 13 mOsmol/kg H2O.

Q: What about the Urinary volume [2, 9] of the same molecule?
A: Its Urinary volume is 10.7 ± 1.1 mL.

Q: What about the “urinary excretion of K+” value [2, 9] of the same molecule?
A: The value was 2265 µmol.

Q: What about the “urinary excretion of Na+” value [2, 9] of the same molecule?
A: Its value is 1903 µmol.

Q: And the “affinity for the V2 receptors (in words)” value ([3]; literature description)?
A: The value was “low affinity”.

Q: With CCOc1ccc2c(c1)C1(CCC(OCCN3CCOCC3)CC1)C(=O)N2S(=O)(=O)c1ccc(C(=O)NC(C)(C)C)cc1OC (stereo not drawn) [Compound B, 1-{4-(N-tert-butylcarbamoyl)-2-methoxybenzenesulfonyl}-5-ethoxy-3-spiro{4-(2-morpholino-ethyloxy)cyclohexane}indol-2-one] as the molecule, how does the “urinary excretion of K+” value [2, 10] read?
A: Its value is 2254 µmol.

Q: What about the “urinary excretion of Na+” value [2, 10] of the same molecule?
A: Its value is 1668 µmol.

Q: What about the Urinary osmolality [2, 11] of the same molecule?
A: Its Urinary osmolality is 1075 +/− 165^a mOsmol/kg H2O.

Q: What about the Urinary volume [2, 11] of the same molecule?
A: Its Urinary volume is 15 ± 2 mL.

Q: What about the “urinary excretion of K+” value [2, 12] of the same molecule?
A: The value was 2334 µmol.

Q: And the “urinary excretion of Na+” value [2, 12]?
A: The value was 1783 µmol.

Q: What about the Urinary osmolality [2, 13] of the same molecule?
A: Its Urinary osmolality is 618 +/− 27^a mOsmol/kg H2O.

Q: What about the Urinary volume [2, 13] of the same molecule?
A: The Urinary volume was 25 +/− 2.2^a ml.

Q: What about the “urinary excretion of K+” value [2, 14] of the same molecule?
A: The value was 2648 µmol.

Q: And the “urinary excretion of Na+” value [2, 14]?
A: Its value is 2168 µmol.

Q: What about the Urinary osmolality [2, 15] of the same molecule?
A: The Urinary osmolality was 292 +/− 40^a mOsmol/kg H2O.

Q: What about the Urinary volume [2, 15] of the same molecule?
A: The Urinary volume was 72.9 +/− 11.1^a ml.

Q: And the Urinary osmolality [2, 16]?
A: The Urinary osmolality was 1371 +/− 125 mOsmol/kg H2O.

Q: What about the Urinary volume [2, 16] of the same molecule?
A: Its Urinary volume is 9.1 ± 0.7 mL.

Q: And the “urinary excretion of K+” value [2, 16]?
A: The value was 2001 µmol.

Q: What about the “urinary excretion of Na+” value [2, 16] of the same molecule?
A: Its value is 1772 µmol.

Q: What about the Urinary osmolality [2, 17] of the same molecule?
A: Its Urinary osmolality is 1376 +/− 99 mOsmol/kg H2O.

Q: What about the Urinary volume [2, 17] of the same molecule?
A: Its Urinary volume is 9.1 ± 0.7 mL.

Q: And the “urinary excretion of K+” value [2, 17]?
A: Its value is 2034 µmol.

Q: And the “urinary excretion of Na+” value [2, 17]?
A: Its value is 1840 µmol.

Q: What about the Urinary osmolality [2, 18] of the same molecule?
A: Its Urinary osmolality is 1443 +/− 46 mOsmol/kg H2O.

Q: What about the Urinary volume [2, 18] of the same molecule?
A: The Urinary volume was 9.5 ± 0.6 mL.

Q: And the “urinary excretion of K+” value [2, 18]?
A: The value was 2022 µmol.

Q: And the “urinary excretion of Na+” value [2, 18]?
A: Its value is 1903 µmol.

Q: And the “effect on urinary excretion (in words)” value [2, 7]?
A: Its value is “significantly increases”.

Q: What about the “effect … of Na+ and K+ ions (in words)” value [2, 7] of the same molecule?
A: Its value is “no effect”.

Q: And the “effect on urinary osmolality (in words)” value [2, 7]?
A: Its value is “significantly diminishes”.

Q: And the Urinary osmolality [2, 19]?
A: The Urinary osmolality was 616 +/− 51^a mOsmol/kg H2O.

Q: And the Urinary volume [2, 19]?
A: The Urinary volume was 31.6 +/− 3.5^a ml.

Q: What about the “urinary excretion of K+” value [2, 19] of the same molecule?
A: Its value is 2944 µmol.

Q: And the “urinary excretion of Na+” value [2, 19]?
A: Its value is 2203 µmol.

Q: What about the Urinary osmolality [2, 20] of the same molecule?
A: Its Urinary osmolality is 1308 +/− 68 mOsmol/kg H2O.

Q: What about the Urinary volume [2, 20] of the same molecule?
A: Its Urinary volume is 11.7 ± 1.5 mL.

Q: What about the “urinary excretion of K+” value [2, 20] of the same molecule?
A: The value was 2519 µmol.

Q: And the “urinary excretion of Na+” value [2, 20]?
A: Its value is 2039 µmol.

Q: What about the “effect on urinary excretion (in words)” value [2, 21] of the same molecule?
A: Its value is “significantly increases”.

Q: And the “effect … of Na+ and K+ ions (in words)” value [2, 21]?
A: Its value is “no effect”.

Q: And the “effect on urinary osmolality (in words)” value [2, 21]?
A: Its value is “significantly diminishes”.

Q: What about the “V2 arginine vasopressin receptor antagonism (in words)” value ([3]; various species, in particular human V2 receptors, J. Clin. Invest., 1996, 98, 2729-2738) of the same molecule?
A: The value was “potent and selective”.
